14 compounds from US10670605B2, “Cysteine reactive probes and uses thereof” (The Scripps Research Institute, priority 2015, dated 2020) can be followed below.

Assay in all cases: Competitive isoTOP-ABPP in situ (fragment-treated cells)
What all share (type): cell-based

Assay [1] addresses cysteines in MDA-MB-231 and Ramos cells (Homo sapiens, UniProt Q8NFF5).
For assay [2], the target named is cysteines in MDA-MB-231 and Ramos cells (Homo sapiens, UniProt Q5UIP0).
Assay [3] deals with cysteines in MDA-MB-231 and Ramos cells (Homo sapiens, UniProt Q9ULA0). The following applies: 200 μM, insitu.
Assay [4] has as its target T1, cysteines in MDA-MB-231 and Ramos cells (Homo sapiens, UniProt P10398).
T1 sequence (P10398 1-606): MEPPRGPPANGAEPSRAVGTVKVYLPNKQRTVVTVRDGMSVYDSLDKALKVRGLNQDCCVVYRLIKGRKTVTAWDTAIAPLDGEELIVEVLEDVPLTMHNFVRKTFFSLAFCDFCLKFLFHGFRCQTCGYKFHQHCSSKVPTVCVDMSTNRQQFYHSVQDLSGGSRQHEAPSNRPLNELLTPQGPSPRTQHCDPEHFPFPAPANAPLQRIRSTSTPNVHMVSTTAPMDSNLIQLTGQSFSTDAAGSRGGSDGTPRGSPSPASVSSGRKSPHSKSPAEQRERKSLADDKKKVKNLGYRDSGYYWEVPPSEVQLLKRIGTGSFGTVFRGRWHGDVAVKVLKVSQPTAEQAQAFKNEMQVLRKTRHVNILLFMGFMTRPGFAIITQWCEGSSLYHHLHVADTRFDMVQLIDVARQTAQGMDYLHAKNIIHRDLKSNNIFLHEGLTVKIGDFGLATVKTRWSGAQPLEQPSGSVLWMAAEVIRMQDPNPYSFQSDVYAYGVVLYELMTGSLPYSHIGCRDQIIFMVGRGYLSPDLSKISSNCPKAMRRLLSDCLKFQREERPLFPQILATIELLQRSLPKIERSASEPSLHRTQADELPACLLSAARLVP
The conditions noted are these: 200 μM, insitu.

For assay [5], the target named is T2, cysteines in MDA-MB-231 and Ramos cells (Homo sapiens, UniProt Q9NXJ5).
T2 sequence (Q9NXJ5 1-209): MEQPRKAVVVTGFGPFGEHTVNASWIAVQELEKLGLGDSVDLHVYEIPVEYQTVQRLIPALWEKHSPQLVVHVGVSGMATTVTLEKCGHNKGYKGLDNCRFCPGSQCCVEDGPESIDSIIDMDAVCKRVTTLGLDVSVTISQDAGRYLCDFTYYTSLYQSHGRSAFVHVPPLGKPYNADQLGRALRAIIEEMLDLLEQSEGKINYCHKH
The conditions noted are these: 200 μM, insitu.

Assay [6] deals with T3, cysteines in MDA-MB-231 and Ramos cells (Homo sapiens, UniProt Q9NUI1).
T3 sequence (Q9NUI1 1-292): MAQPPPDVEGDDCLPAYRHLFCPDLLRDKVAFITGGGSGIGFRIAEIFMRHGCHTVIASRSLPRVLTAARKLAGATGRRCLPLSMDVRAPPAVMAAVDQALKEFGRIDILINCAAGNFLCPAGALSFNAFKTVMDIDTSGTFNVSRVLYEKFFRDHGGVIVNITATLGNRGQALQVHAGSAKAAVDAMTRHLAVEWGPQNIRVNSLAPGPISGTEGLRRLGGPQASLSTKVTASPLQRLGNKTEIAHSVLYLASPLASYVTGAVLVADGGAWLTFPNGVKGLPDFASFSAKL
The following applies: for isoTOP-ABPP ratio Q9NUI1_C22: 200 μM, insitu, 231.

The target in assay [7] is cysteines in MDA-MB-231 and Ramos cells (Homo sapiens, UniProt O95881). The following applies: 200 μM, insitu, 231.
The target of assay [8] is cysteines in MDA-MB-231 and Ramos cells (Homo sapiens, UniProt Q6PCB5). The conditions noted are these: 200 μM, insitu.
In assay [9] the target is T4, cysteines in MDA-MB-231 and Ramos cells (Homo sapiens, UniProt O95833).
T4 sequence (O95833 1-236): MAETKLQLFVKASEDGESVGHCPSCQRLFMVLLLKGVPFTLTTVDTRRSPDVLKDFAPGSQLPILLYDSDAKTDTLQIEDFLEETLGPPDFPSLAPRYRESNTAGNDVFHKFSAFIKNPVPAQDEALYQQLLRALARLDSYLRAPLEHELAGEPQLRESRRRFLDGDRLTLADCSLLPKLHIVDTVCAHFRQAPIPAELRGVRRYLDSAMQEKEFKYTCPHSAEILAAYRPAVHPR
The conditions noted are these: 200 μM, insitu, 231.

Chain of cysteines in MDA-MB-231 and Ramos cells (Homo sapiens, UniProt Q5UIP0) (Q5UIP0 whole entry): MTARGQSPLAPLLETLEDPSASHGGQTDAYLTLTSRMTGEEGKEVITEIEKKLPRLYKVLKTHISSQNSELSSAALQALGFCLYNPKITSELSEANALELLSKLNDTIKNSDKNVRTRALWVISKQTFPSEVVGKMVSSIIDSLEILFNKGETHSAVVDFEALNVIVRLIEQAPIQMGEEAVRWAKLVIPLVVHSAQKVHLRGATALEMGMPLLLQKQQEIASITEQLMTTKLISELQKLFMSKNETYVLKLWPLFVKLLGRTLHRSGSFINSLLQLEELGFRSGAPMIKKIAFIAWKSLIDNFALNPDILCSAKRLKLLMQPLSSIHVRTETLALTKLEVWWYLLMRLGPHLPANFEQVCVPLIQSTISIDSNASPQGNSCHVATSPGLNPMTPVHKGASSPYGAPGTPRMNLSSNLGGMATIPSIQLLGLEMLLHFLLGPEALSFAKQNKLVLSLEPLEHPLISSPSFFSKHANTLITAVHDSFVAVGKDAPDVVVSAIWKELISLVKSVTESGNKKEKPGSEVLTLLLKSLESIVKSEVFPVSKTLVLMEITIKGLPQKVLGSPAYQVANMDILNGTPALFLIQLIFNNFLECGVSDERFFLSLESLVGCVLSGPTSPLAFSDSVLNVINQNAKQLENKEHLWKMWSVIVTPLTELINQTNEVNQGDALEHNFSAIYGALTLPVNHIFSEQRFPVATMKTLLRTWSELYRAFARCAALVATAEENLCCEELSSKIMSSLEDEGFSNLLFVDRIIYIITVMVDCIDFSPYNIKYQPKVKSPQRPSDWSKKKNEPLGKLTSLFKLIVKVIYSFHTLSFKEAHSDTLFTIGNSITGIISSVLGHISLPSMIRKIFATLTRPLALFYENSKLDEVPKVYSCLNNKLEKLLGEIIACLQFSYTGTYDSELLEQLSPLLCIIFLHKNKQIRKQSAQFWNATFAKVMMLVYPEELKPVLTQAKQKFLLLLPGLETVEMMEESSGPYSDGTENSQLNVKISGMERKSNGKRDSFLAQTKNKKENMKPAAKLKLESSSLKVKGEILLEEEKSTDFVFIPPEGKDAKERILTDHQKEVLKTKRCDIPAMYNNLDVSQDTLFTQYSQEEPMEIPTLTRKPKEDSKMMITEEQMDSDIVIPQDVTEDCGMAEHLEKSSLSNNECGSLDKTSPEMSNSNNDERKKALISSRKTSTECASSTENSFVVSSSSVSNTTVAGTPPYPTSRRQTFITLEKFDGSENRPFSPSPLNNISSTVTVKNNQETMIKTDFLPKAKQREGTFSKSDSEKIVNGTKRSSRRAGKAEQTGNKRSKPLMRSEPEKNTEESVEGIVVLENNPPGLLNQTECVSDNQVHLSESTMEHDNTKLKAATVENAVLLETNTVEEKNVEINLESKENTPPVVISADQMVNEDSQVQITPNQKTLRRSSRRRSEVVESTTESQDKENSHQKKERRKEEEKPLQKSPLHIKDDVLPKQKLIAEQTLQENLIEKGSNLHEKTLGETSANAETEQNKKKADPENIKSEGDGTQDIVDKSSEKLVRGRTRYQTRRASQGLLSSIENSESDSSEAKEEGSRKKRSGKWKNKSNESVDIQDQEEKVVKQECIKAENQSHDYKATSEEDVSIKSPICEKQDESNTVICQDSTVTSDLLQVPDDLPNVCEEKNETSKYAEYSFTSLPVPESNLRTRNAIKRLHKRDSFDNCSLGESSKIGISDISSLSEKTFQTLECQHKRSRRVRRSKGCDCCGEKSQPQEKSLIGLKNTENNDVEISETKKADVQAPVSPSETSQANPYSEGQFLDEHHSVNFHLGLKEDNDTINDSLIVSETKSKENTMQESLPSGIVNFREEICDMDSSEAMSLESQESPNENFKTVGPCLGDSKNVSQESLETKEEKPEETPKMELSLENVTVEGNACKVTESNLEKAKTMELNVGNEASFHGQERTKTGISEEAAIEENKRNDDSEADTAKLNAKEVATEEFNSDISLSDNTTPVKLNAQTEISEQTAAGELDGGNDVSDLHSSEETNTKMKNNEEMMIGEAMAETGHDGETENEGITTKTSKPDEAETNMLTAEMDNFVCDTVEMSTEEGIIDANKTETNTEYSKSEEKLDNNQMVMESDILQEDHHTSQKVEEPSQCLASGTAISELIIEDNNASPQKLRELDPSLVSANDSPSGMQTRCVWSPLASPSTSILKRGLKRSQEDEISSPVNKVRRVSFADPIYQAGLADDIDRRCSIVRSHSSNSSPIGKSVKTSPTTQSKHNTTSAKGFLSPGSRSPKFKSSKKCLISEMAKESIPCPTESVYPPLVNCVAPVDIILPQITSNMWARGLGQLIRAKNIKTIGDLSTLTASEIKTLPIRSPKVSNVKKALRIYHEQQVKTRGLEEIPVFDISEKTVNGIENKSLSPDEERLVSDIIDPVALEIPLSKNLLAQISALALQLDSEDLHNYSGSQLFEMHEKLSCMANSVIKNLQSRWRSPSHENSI
Chain of cysteines in MDA-MB-231 and Ramos cells (Homo sapiens, UniProt O95881) (O95881 27-172): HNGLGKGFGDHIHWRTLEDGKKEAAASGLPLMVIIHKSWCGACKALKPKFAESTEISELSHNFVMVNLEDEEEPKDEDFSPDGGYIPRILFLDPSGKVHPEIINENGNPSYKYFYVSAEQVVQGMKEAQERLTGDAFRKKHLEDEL
Chain of cysteines in MDA-MB-231 and Ramos cells (Homo sapiens, UniProt Q6PCB5) (Q6PCB5 whole entry): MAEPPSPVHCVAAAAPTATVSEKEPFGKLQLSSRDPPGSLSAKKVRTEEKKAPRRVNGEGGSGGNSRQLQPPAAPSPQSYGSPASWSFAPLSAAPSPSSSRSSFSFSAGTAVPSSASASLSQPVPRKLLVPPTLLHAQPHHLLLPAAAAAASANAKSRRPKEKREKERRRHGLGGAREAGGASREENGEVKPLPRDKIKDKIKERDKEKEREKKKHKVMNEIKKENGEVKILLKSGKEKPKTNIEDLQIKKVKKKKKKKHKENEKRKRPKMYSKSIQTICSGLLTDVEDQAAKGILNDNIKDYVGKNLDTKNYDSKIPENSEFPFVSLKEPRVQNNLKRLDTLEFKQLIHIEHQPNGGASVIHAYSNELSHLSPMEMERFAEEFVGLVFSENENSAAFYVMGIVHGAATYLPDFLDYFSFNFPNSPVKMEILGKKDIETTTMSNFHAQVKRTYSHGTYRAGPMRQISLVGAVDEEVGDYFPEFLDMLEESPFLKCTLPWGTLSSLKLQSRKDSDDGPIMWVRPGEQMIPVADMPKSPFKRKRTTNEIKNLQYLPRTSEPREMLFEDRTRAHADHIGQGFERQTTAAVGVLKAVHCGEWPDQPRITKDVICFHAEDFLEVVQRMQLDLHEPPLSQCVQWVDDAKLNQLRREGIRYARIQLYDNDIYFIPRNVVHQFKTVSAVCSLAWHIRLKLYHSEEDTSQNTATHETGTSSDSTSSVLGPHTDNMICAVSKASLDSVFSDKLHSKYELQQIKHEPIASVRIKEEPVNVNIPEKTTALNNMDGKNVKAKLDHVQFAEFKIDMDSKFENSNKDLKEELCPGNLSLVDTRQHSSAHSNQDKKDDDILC
Chain of cysteines in MDA-MB-231 and Ramos cells (Homo sapiens, UniProt Q8NFF5) (Q8NFF5 18-587): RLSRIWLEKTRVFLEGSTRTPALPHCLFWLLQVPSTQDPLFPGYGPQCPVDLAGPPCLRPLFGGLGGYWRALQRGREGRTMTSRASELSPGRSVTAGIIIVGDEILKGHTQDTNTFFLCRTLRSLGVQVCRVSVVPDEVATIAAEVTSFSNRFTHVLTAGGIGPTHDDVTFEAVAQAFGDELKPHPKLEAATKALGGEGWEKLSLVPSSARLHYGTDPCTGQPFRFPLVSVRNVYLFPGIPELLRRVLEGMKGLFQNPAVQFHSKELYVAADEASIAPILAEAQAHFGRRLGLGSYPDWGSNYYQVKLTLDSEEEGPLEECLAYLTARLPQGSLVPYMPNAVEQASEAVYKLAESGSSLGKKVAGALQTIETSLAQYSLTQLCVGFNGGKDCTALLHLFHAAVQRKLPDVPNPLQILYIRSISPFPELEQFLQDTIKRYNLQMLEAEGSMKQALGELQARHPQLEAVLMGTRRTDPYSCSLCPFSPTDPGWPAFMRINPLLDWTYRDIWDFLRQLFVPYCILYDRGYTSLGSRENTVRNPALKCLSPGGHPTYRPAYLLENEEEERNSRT

In the case of `COc1ccc2c(c1)CCCN2C(=O)CCl` [compound 2], in [1] (200 μM, insitu, 231), the “isoTOP-ABPP reactivity Q8NFF5_C499 FLAD1” value was 6.2.
In the case of `COc1ccc(C2CC(c3cccs3)=NN2C(=O)CCl)cc1` (centres unmarked) [compound 4], the “isoTOP-ABPP reactivity Q5UIP0_C2298 RIF1” value in [2] (100 μM in situ 231) is 20.0.
Regarding `O=C(CCl)N1CCC(Cc2ccccc2)CC1` [compound 9], the “isoTOP-ABPP reactivity Q9ULA0_C144 DNPEP” value in assay [3] (231) was 2.1.
As for `O=C(CCl)N1CCN(S(=O)(=O)c2ccccc2F)CC1` [compound 10], the “isoTOP-ABPP ratio, cysteine P10398_C597” value in assay [4] (231) is recorded as 1.4. Moreover, the “isoTOP-ABPP ratio, cysteine Q5UIP0_C2298” value in [2] (200 μM, insitu, 231) is given as 20.0. Also, the “isoTOP-ABPP ratio, cysteine Q9NXJ5_C149” value in assay [5] (ramos) came out at 11.0. Further, the “isoTOP-ABPP ratio, cysteine Q9ULA0_C144” value in [3] (231) came to 5.2.
With `Cn1cc(S(=O)(=O)N2CCOCC2)cc1C(=O)NC(=O)CCl` [compound 11], the “isoTOP-ABPP ratio, cysteine Q5UIP0_C2298” value in assay [2] (100 μM in situ 231) is 1.3. Besides, the “isoTOP-ABPP ratio, cysteine Q8NFF5_C499” value in [1] (100 μM in situ 231) amounted to 16. The “isoTOP-ABPP ratio, cysteine Q9NUI1_C22” value in assay [6] (100 μM in situ 231) is 2.1.
Turning to `O=C(CCl)NC(=O)NC12CC3CC(CC(C3)C1)C2` [compound 12], the “isoTOP-ABPP ratio, cysteine O95881_C66” value in [7] came to 20.0. The “isoTOP-ABPP ratio, cysteine Q6PCB5_C280” value in assay [8] (231) came out at 20.0. Also, in assay [5] (231), the “isoTOP-ABPP ratio, cysteine Q9NXJ5_C149” value was 3.9.
For the compound `O=C(CCl)NCCc1c[nH]c2ccccc12` [compound 13], the “isoTOP-ABPP ratio, cysteine O95881_C66” value in assay [7] turned out to be 20.0. In addition, the “isoTOP-ABPP ratio, cysteine P10398_C597” value in assay [4] (ramos) came out at 1.0. Moreover, the “isoTOP-ABPP ratio, cysteine Q6PCB5_C280” value in assay [8] (ramos) amounted to 0.8. Besides, in assay [5] (ramos), the “isoTOP-ABPP ratio, cysteine Q9NXJ5_C149” value is on record as 20.0.
Consider `O=C(CCl)NC12CC3CC(CC(C3)C1)C2` [compound 21], for which, in assay [9], the “isoTOP-ABPP ratio, cysteine O95833_C22” value worked out at 1.0. For the same compound, the “isoTOP-ABPP ratio, cysteine P10398_C597” value in [4] (231) was determined as 0.7. Besides, the “isoTOP-ABPP ratio, cysteine Q5UIP0_C2298” value in [2] (200 μM, insitu, 231) is recorded as 0.9.
Consider `CC(C)CCOCCNC(=O)CCl` [compound 27], for which the “isoTOP-ABPP ratio Q6PCB5_C280” value in assay [8] (231) turned out to be 1.0.
Turning to `O=C(CCl)N1CCN(CC(=O)N2CCOCC2)CC1` [compound 29], the “isoTOP-ABPP ratio P10398_C597” value in assay [4] (ramos) stood at 1.2. In addition, the “isoTOP-ABPP ratio Q6PCB5_C280” value in assay [8] (ramos) was 1.4. Also, the “isoTOP-ABPP ratio Q8NFF5_C499” value in assay [1] (200 μM, insitu, ramos) came out at 3.4. Further, the “isoTOP-ABPP ratio Q9ULA0_C144” value in assay [3] (ramos) turned out to be 1.3.
Consider `C=CC(=O)N(Cc1cccnc1)c1cc(C(F)(F)F)cc(C(F)(F)F)c1` [compound 31], for which the “isoTOP-ABPP ratio O95833_C22” value in [9] is given as 0.5. The “isoTOP-ABPP ratio Q9NUI1_C22” value in assay [6] is 0.7.
Regarding `C=CC(=O)Nc1cc(F)c(N2CCN(C(=O)OC(C)(C)C)CC2)c(F)c1` [compound 38], the “isoTOP-ABPP ratio O95881_C66” value in assay [7] was found to be 1.0.
For `Cc1ccc(C=C(C#N)C(=O)NCCN2CCOCC2)cc1` [compound 41], the “isoTOP-ABPP ratio O95881_C66” value in [7] came to 1.0. Besides, the “isoTOP-ABPP ratio Q9ULA0_C144” value in [3] (231) stood at 0.8.
As for `CC1CCc2ccccc2N1C(=O)CCl` (centres unmarked) [compound 45], in [9], the “isoTOP-ABPP ratio O95833_C22” value is recorded as 13.8. In addition, in [6], the “isoTOP-ABPP ratio Q9NUI1_C22” value amounted to 17.0.
